A word on the EC50: it is the concentration that produces a half-maximal response.

The subject of the experiment is AMPK. As to the kind of experiment: AMPK activation assay (enzyme-linked immunosorbent assay). In kind it is cell-based. In short, it runs like this: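 Activation by each compound is measured using a conventional commercial immunoassay kit.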
As to `N#Cc1ccc(CN2CCC(NC(=O)c3ccc(C(=O)N4CCC(Oc5ccc(NS(=O)(=O)C6CC6)cc5)CC4)nc3)CC2)cc1` [Compound 448, N-(1-(4-cyanobenzyl)piperidin-4-yl)-6-(4-(4-(cyclopropanesulfonamido)phenoxy)piperidine-1-carbonyl)nicotinamide], the EC50 fell in the range of 1000 to 5000 nM.

As for `Cc1cc(CN2CCN(C(=O)c3ccc(C(=O)NC4CCN(Cc5ccccc5)CC4)nc3)CC2)no1` [Compound 85, N-(1-benzylpiperidin-4-yl)-5-(4-((5-methylisoxazol-3-yl)methyl)piperazine-1-carbonyl)picolinamide], the half-maximal effective concentration (EC50) lay within 1000 to 5000 nM.

`COc1ccc(C(=O)C2CCN(C(=O)c3ccc(C(=O)N[C@@H]4CCN(Cc5ccc(OC(F)(F)F)cc5)C[C@H]4F)cn3)CC2)cc1` (relative stereo) [Compound 350, N-((trans)-3-fluoro-1-(4-(trifluoromethoxy)benzyl)piperidin-4-yl)-6-(4-(4-methoxybenzoyl)piperidine-1-carbonyl)nicotinamide]: the EC50 is below 500 nM.

Compound `COc1ccc(O[C@H]2CC[C@@H](NC(=O)c3ccc(C(=O)N4CCC(Oc5ccc(C(F)(F)F)cc5)CC4)cn3)CC2)cc1` [Compound 185, N-((cis)-4-(4-methoxyphenoxy)cyclohexyl)-5-(4-(4-(trifluoromethyl)phenoxy)piperidine-1-carbonyl)picolinamide] gave an EC50 below 500 nM.

`COc1ccc(C(=O)C2CCN(c3ccc(C(=O)NC4CCN(Cc5ccc(C#N)cc5)CC4)nc3)CC2)cc1` [Compound 302, N-(1-(4-cyanobenzyl)piperidin-4-yl)-5-(4-(4-methoxybenzoyl)piperidin-1-yl)picolinamide] yielded a concentration giving a half-maximal response (EC50) below 500 nM.

`CN(C)C(=O)c1ccc(Oc2ccc(NC(=O)c3ccc(C(=O)N4CCC(C(=O)c5ccc(F)cc5F)CC4)nc3)cn2)cc1` [Compound 481, 6-(4-(2,4-difluorobenzoyl)piperidine-1-carbonyl)-N-(6-(4-(dimethylcarbamoyl)phenoxy)pyridin-3-yl)nicotinamide]: the EC50 was below 500 nM.

In turn, `COc1ccc(CN2CCC(NC(=O)c3ccc(C(=O)N4CCC(C(=O)c5ccc(F)c(F)c5)CC4)cn3)CC2)cc1` [Compound 329, 5-(4-(3,4-difluorobenzoyl)piperidine-1-carbonyl)-N-(1-(4-methoxybenzyl)piperidin-4-yl) picolinamide] registered an EC50 below 500 nM.

Consider `O=C(NC1CCN(Cc2ccccc2)CC1)c1ccc(C(=O)N2CCN(c3ccccc3)CC2)cn1` [Compound 97, N-(1-benzylpiperidin-4-yl)-5-(4-phenylpiperazine-1-carbonyl)picolinamide], for which the concentration giving a half-maximal response (EC50) is 1000 to 5000 nM.

The compound `N#Cc1ccc(CN2CCC(NC(=O)c3ccc(C(=O)NC4CCN(Cc5ccc(C#N)cc5)CC4)nn3)CC2)cc1` [Compound 386, N3,N6-bis(1-(4-cyanobenzyl)piperidin-4-yl)pyridazine-3,6-dicarboxamide] yielded an EC50 above 10000 nM.

In turn, `N#Cc1ccc(OC2CCN(C(=O)c3ccc(C(=O)NC4CCN(Cc5ccc(N6CCOCC6)cc5)CC4)cn3)CC2)cc1` [Compound 337, 6-(4-(4-cyanophenoxy)piperidine-1-carbonyl)-N-(1-(4-morpholinobenzyl)piperidin-4-yl)nicotinamide] registered a concentration for a half-maximal effect (EC50) below 500 nM.

`N#Cc1ccc(CN2CCC(NC(=O)c3ccc(C(=O)N4CCC(Oc5ccc(C#N)cc5)CC4)nc3)CC2)cc1` [Compound 323, N-(1-(4-cyanobenzyl)piperidin-4-yl)-6-(4-(4-cyanophenoxy)piperidine-1-carbonyl)nicotinamide] returned a 50% effective concentration (EC50) below 500 nM.

`COc1ccc(C(=O)C2CCN(C(=O)c3ccc(C(=O)N[C@H]4CC[C@@H](Oc5cc(F)cc(F)c5)CC4)nc3)CC2)cc1` [Compound 300, N-((cis)-4-(3,5-difluorophenoxy)cyclohexyl)-5-(4-(4-methoxybenzoyl)piperidine-1-carbonyl)picolinamide] came in with a concentration for a half-maximal effect (EC50) below 500 nM.

`N#Cc1ccc(CN2CCC(NC(=O)c3ccc(C(=O)NCCOc4ccc(F)cc4)cn3)CC2)cc1` [Compound 149, N2-(1-(4-cyanobenzyl)piperidin-4-yl)-N5-(2-(4-fluorophenoxy)ethyl)pyridine-2,5-dicarboxamide] registered an EC50 of 500 to 1000 nM.

`COc1ccc(C(=O)N2CCN(C(=O)c3ccc(C(=O)NC4CCN(Cc5ccc(C#N)cc5)CC4)nc3)CC2)cc1` [Compound 77, N-(1-(4-cyanobenzyl)piperidin-4-yl)-5-(4-(4-methoxybenzoyl)piperazine-1-carbonyl)picolinamide] came in with an EC50 below 500 nM.

Compound `N#Cc1ccc(Oc2ccc(NC(=O)c3ccc(C(=O)N4CCN(Cc5ccc(F)cc5)CC4)cn3)cn2)cc1` [Compound 63, 5-(4-(4-fluorobenzyl)piperazine-1-carbonyl)-(6-(4-cyanophenoxy)pyridin-3-yl)picolinamide] showed an EC50 below 500 nM.

As for `O=C(NC1CCN(Cc2ccc(Cl)cc2)CC1)c1ccc(C(=O)N2CCN(Cc3ccc(F)cc3)CC2)cn1` [Compound 52], the concentration for a half-maximal effect (EC50) is below 500 nM.

As for `CS(=O)(=O)c1ccc(OC2CCN(C(=O)c3ccc(C(=O)NC4CCN(Cc5ccc(C#N)cc5)CC4)cn3)CC2)cc1` [Compound 397, N-(1-(4-cyanobenzyl)piperidin-4-yl)-6-(4-(4-(methylsulfonyl)phenoxy)piperidine-1-carbonyl)nicotinamide], the EC50 was below 500 nM.

`N#Cc1ccc(CN2CCC(NC(=O)c3ccc(C(=O)N4CCN(CC5CCCCC5)CC4)cn3)CC2)cc1` [Compound 95, N-(1-(4-cyanobenzyl)piperidin-4-yl)-5-(4-(cyclohexylmethyl)piperazine-1-carbonyl)picolinamide] registered an EC50 below 500 nM.

Regarding `CS(=O)(=O)c1ccc(C(=O)C2CCN(C(=O)c3ccc(C(=O)Nc4ccc(Oc5ccc(F)cc5)nc4)nc3)CC2)cc1` [Compound 232, N-(6-(4-fluorophenoxy)pyridin-3-yl)-5-(4-(4-(methylsulfonyl)benzoyl)piperidine-1-carbonyl)picolinamide], the EC50 was below 500 nM.

With `O=C(c1ccc(C(=O)N2CCN(CCc3ccccc3)CC2)nc1)N1CCN(Cc2ccc(F)cc2)CC1` [Compound 88, (4-(4-fluorobenzyl)piperazin-1-yl)(6-(4-phenethylpiperazine-1-carbonyl)pyridin-3-yl)methanone], the EC50 is 1000 to 5000 nM.

Compound `N#Cc1ccc(CN2CCC(NC(=O)c3ncc(C(=O)N4CCN(Cc5ccc(F)cc5)CC4)cc3C#CCNC(=O)COCCOCCOCCOCCNC(=O)CCCC[C@@H]3SC[C@@H]4NC(=O)N[C@@H]43)CC2)cc1` [Compound 159, N-(1-(4-cyanobenzyl)piperidin-4-yl)-3-(5,20-dioxo-24-((3aS,4S,6aR)-2-oxohexahydro-1H-thieno[3,4-d]imidazol-4-yl)-7,10,13,16-tetraoxa-4,19-diazatetracos-1-ynyl)-5-(4-(4-fluorobenzyl)piperazine-1-carbonyl)picolinamide] had a 50% effective concentration (EC50) of 1000 to 5000 nM.

`COc1ccc(CN2CCN(C(=O)c3ccc(C(=O)NC4CCN(Cc5ccc(C#N)cc5)CC4)nc3)CC2)cc1` [Compound 101, N-(1-(4-cyanobenzyl)piperidin-4-yl)-5-(4-(4-methoxybenzyl)piperazine-1-carbonyl)picolinamide] came in with a 50% effective concentration (EC50) below 500 nM.

The compound `CS(=O)(=O)c1ccc(CN2CCC(NC(=O)c3ccc(C(=O)N4CCC(Oc5ccc(C#N)cc5)CC4)nc3)CC2)cc1` [Compound 214, 6-(4-(4-cyanophenoxy)piperidine-1-carbonyl)-N-(1-(4-(methylsulfonyl)benzyl)piperidin-4-yl)nicotinamide] registered an EC50 above 10000 nM.

With `N#Cc1ccc(OC2CN(C(=O)c3ccc(C(=O)NC4CCN(Cc5cc(F)cc(F)c5)CC4)nc3)C2)cc1` [Compound 313, 5-(3-(4-cyanophenoxy)azetidine-1-carbonyl)-N-(1-(3,5-difluorobenzyl)piperidin-4-yl)picolinamide], the EC50 was below 500 nM.

In turn, `Cc1ccc(OC2CCN(C(=O)c3ccc(C(=O)NC4CCN(Cc5cc(F)cc(F)c5)CC4)nc3)CC2)cc1` [Compound 293, N-(1-(3,5-difluorobenzyl)piperidin-4-yl)-5-(4-(p-tolyloxy)piperidine-1-carbonyl)picolinamide] gave an EC50 below 500 nM.

`N#Cc1ccc(CN2CCC(C(=O)Nc3ccc(C(=O)N4CCC(C(=O)c5ccc(F)cc5)CC4)cn3)CC2)cc1` [Compound 175, 1-(4-cyanobenzyl)-N-(5-(4-(4-fluorobenzoyl)piperidine-1-carbonyl)pyridin-2-yl)piperidine-4-carboxamide] gave an EC50 below 500 nM.

In turn, `COc1ccc(C(=O)C2CCN(C(=O)c3ccc(C(=O)NC4CCN(Cc5ccc(C#N)cc5)CC4)nc3)CC2)cc1` [Compound 129, N-(1-(4-cyanobenzyl)piperidin-4-yl)-5-(4-(4-methoxybenzoyl)piperidine-1-carbonyl)picolinamide] showed an EC50 below 500 nM.

For `N#Cc1ccc(OC2CCN(C(=O)c3ccc(C(=O)N[C@H]4CC[C@@H](Oc5ccc(F)cc5)CC4)nc3)CC2)cc1` [Compound 303, 5-(4-(4-cyanophenoxy)piperidine-1-carbonyl)-N-((cis)-4-(4-fluorophenoxy)cyclohexyl)picolinamide], the EC50 is below 500 nM.

Turning to `N#Cc1ccc(CN2CCc3ccc(NC(=O)c4ccc(C(=O)NCc5ccc(F)cc5)cn4)cc3C2)cc1` [Compound 144, N2-(2-(4-cyanobenzyl)-1,2,3,4-tetrahydroisoquinolin-7-yl)-N5-(4-fluorobenzyl)pyridine-2,5-dicarboxamide], the half-maximal effective concentration (EC50) lay in the range of 500 to 1000 nM.

`O=C(Nc1ccc(Oc2ccc(F)cc2)nc1)c1ccc(C(=O)N2CCC(Oc3ccc(S(F)(F)(F)(F)F)cc3)CC2)nc1` [Compound 496, N-(6-(4-fluorophenoxy)pyridin-3-yl)-6-(4-(4-(pentafluorosulfanyl)phenoxy)piperidine-1-carbonyl)nicotinamide] returned a concentration for a half-maximal effect (EC50) below 500 nM.

Take `COc1ccc(C(=O)C2CCN(C(=O)c3ccc(C(=O)N[C@@H]4CCN(Cc5ccc(C#N)cc5)C[C@H]4F)cn3)CC2)cc1` [Compound 452, N-((3R,4R)-1-(4-cyanobenzyl)-3-fluoropiperidin-4-yl)-6-(4-(4-methoxybenzoyl)piperidine-1-carbonyl)nicotinamide]: the EC50 is below 500 nM.

Compound `N#Cc1ccc(CN2CCC(NC(=O)c3ccc(C(=O)NC4CCN(c5ccc(C#N)cc5)CC4)cn3)CC2)cc1` [Compound 166, N2-(1-(4-cyanobenzyl)piperidin-4-yl)-N5-(1-(4-cyanophenyl)piperidin-4-yl)pyridine-2,5-dicarboxamide] gave an EC50 below 500 nM.

(Values after patent US20150087673A1, “METHODS FOR USING AND BIOMARKERS FOR AMPK-ACTIVATING COMPOUNDS” (RIGEL PHARMACEUTICALS, INC., priority 2013, published 2015).)
